Data from US9222059B2, “Cleaning formulations with improved surfactant solubility and methods of production and use thereof” (The Sun Products Corporation, priority 2011, dated 2015).
Read-outs that look alike come from different tables or passages of the source.

Columns and labels:
[1] = Liquid stability / solubility of high-concentration EMES in water with C8 amine oxide; details: 25% EMES, about 2% C8 AO; FIG. 6b
Protocol: Similar approaches were taken for examining the impact of increasing EMES concentration on liquid stability (i.e., examining the solubility of the surfactant in solution at a given concentration), and the ability of hydrotropes to improve EMES solubility. Specifically, samples of EMES in water were prepared at different concentrations and observed as described above for any evidence of instability or poor solubility.

[2] = Storage stability (Pass/Fail) of base liquid detergent formulation with 9.5% EMES plus candidate hydrotrope; assay type: physicochemical; design: key: a sample was said to “Pass” if it remained a clear isotropic liquid at the indicated challenge temperature; a sample was said to “Fail” if it showed any of the above-described evidence of instability or insolubility
[3] = Rheology, 40 mm circular plate rheometer (flowability/pumpability); assay type: physicochemical; details: agent at about 5% to about 8%; results not shown
Protocol: A solution of 35% EMES+7% C8 amine oxide in water was prepared as described in the foregoing examples. […] The rheology of the solution was then tested using a 40 mm circular plate rheometer. A conditioning step was performed which brought the plate to 25° C., and a pre-shear step was carried out at 0.7958 Pa for 30 sec, and then the device was equilibrated until it reached 0 velocity. Then the main continuous ramp step began on the solution, which ran for 1 minute, and the shear stress was increased from 0.1 to 250 Pa. A total of 15 data points were collected, and the device remained at 25° C. the entire time. […] Solutions of about 40% or more EMES, however, required a slightly higher amine oxide content to remain flowable and pumpable, but the shear stress necessary was inordinately high. Therefore, for applications in which it may be desirable to pump the surfactant formulation, it is preferable to use 35% or lower EMES in the formulation.
We also evaluated whether or not inclusion of one or more additional components in the solution would improve the pumpability of high concentration EMES formulations. Specifically, ethanol or glycerine at about 5% to about 8% were included in formulations containing 35% EMES/7% C8 amine oxide.

[4] = Interfacial surface tension / CMC (detergency), pendant drop method, Kruss DSA100; assay type: physicochemical; details: 0 to 250 ppm in water; FIG. 1
From the text: First, we addressed the fact that MES has typically been thought of as a component that can show poor detergency. A surfactant's cleaning performance (i.e., detergency) can be measured directly by an examination of its interfacial tension (IFT) as a function of its critical micelle concentration (CMC, the concentration where the surfactant's monomers arrange themselves in a spherical shape so that their hydrophobic tails can trap oil). We therefore wanted to examine the suitability of various surfactants, including various types of MES, for use in reducing surface tension (i.e., detergency) over various surfactant concentrations. Surfactants were titrated in water at concentrations from 0 to 250 ppm (which is typical of “in use” conditions for surfactant formulations in household laundry methods), and the interfacial surface tension of these solutions was measured as a function of concentration using the pendant drop method on a Kruss DSA100 drop shape analyzer. […] As one of ordinary skill will readily understand, other tensiometric methods of determining interfacial surface tension can also be used, for example using a Du Nouy ring, drop volume, or bubble tensiometer; suitable instrumentation and methods for measuring surface tension using such approaches are well-known in the art. […]

[5] = material 2.00 % w/v in base detergent with 9.5% EMES, 1 week
[6] = material 2.00 % w/v in base detergent with 9.5% EMES, 3 cycles, -20° C.
[7] = material 2.00 % w/v in base detergent with 9.5% EMES, 12 weeks
[8] = material 2.00 % w/v in base detergent with 9.5% EMES, 52 weeks

Compound	Freeze/Thaw storage [2, 6]	Room Temp. storage [2, 8]	40° F. storage [2]	105° F. storage [2]	125° F. storage [2]	other results
CCCCCCCC[N+](C)(C)[O-] [C8 AO, octyl dimethyl amine oxide]	–	–	–	–	–	appearance of EMES solution with hydrotrope [1]: nearly clear, isotropic solution
CCO [Ethanol, Ethyl alcohol, reference compound]	Pass	Pass	–	–	–	125° F. storage [2, 5]: Pass; 40° F. storage [2, 7]: Fail; 105° F. storage [2, 7]: Pass; flowability of 35% EMES/7% C8 amine oxide with added agent [3]: worse
CCCCCCCCCC[N+](C)(C)[O-] [Genamino x DC40, Decyl dimethyl amine oxide]	Pass	Pass	Fail	Pass	Pass	–
CC(O)CO (stereo not shown) [Propylene glycol, Propylene glycol (1,2-propane diol), reference compound]	Pass	Pass	–	–	–	125° F. storage [2, 5]: Pass; 40° F. storage [2, 7]: Fail; 105° F. storage [2, 7]: Pass
CCCCCCCC[N+](C)(C)[O-] [Synthetic C8 3853-01, Octyl dimethyl amine oxide]	Pass	Pass	Pass	Pass	Pass	–
C[N+](C)(C)CC(=O)O [Tomamine LH, Betaine]	Pass	Pass	Fail	Pass	Pass	–
CCCCCCCCCCCC(=O)OCCOCCOCCOCCOCCOCCOCCOCCOCCOCCOCCOCCOCCOCCOCCOCCOCCOCCOCCOCCOCC(OCCOCCOCCOCCOCCOCCOCCOCCOCCOCCOCCOCCOCCOCCOCCOCCOCCOCCOCCOCCO)C1OCC(OCCOCCOCCOCCOCCOCCOCCOCCOCCOCCOCCOCCOCCOCCOCCOCCOCCOCCOCCOCCO)C1OCCOCCOCCOCCOCCOCCOCCOCCOCCOCCOCCOCCOCCOCCOCCOCCOCCOCCOCCOCCO (stereo not shown) [Tween 20, Polysorbate 20]	–	–	Fail	Pass	Pass	Freeze/Thaw storage [2]: Pass; Room Temp. storage [2]: Pass
Akkylglucoside [AG6206]	Pass	Pass	Fail	Pass	Pass	–
Glycerine (propane 1,2,3-triol) [reference compound]	–	–	Fail	Pass	Pass	Freeze/Thaw storage [2]: Pass; Room Temp. storage [2]: Pass; flowability of 35% EMES/7% C8 amine oxide with added agent [3]: worse
Lauramine oxide [Ammonyx LO]	Pass	Pass	Fail	Pass	Pass	–
Methyl ester sulfonate [MES]	–	–	–	–	–	critical micelle concentration (CMC), compared with LAS, SLES [4]: reaches its CMC the quickest; interfacial tension (IFT), compared with LAS, SLES [4]: lowest IFT at each concentration measured
Sodium xylene sulfonate [reference compound]	–	–	Fail	Pass	Pass	Freeze/Thaw storage [2]: Pass; Room Temp. storage [2]: Pass
